# Measurements from PubChem BioAssay AID2060499 (Molecular Pharmacology Branch, DTP, NCI, 2025).
# Test system: 777334-354-R2-J4-PDC tumor spheroids with HUVEC/MSC, viability
# Test: Anticancer human tumor 777334-354-R2-J4-PDC patient-derived pancreatic adenocarcinoma cell line growth inhibition [GQUAD]
# Settings: for IC50: curve of first compound; for viability, T/C: stronger effect = lower value
# In short: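 Viability of tumor cells grown as complex spheroids with endothelial and stromal cells, exposed to drug combinations. Top concentration at or near clinical Cmax (else 10 microM), diluted in half-log increments.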
# [1] = second compound 0.0316 µM, first compound 0.0316 µM
# [2] = second compound 0.0316 µM, first compound 0.1 µM
# [3] = second compound 0.0316 µM, first compound 0.316 µM
# [4] = second compound 0.0316 µM, first compound 1 µM
# [5] = second compound 0.0316 µM, first compound 3.16 µM
# [6] = second compound 0.0316 µM, first compound 10 µM
# [7] = second compound 0.1 µM, first compound 0.0316 µM
# [8] = second compound 0.1 µM, first compound 0.1 µM
# [9] = second compound 0.1 µM, first compound 0.316 µM
# [10] = second compound 0.1 µM, first compound 1 µM
# [11] = second compound 0.1 µM, first compound 3.16 µM
# [12] = second compound 0.1 µM, first compound 10 µM
# [13] = second compound 0.316 µM, first compound 0.0316 µM
# [14] = second compound 0.316 µM, first compound 0.1 µM
# [15] = second compound 0.316 µM, first compound 0.316 µM
# [16] = second compound 0.316 µM, first compound 1 µM
# [17] = second compound 0.316 µM, first compound 3.16 µM
# [18] = second compound 0.316 µM, first compound 10 µM
# [19] = second compound 1 µM, first compound 0.0316 µM
# [20] = second compound 1 µM, first compound 0.1 µM
# [21] = second compound 1 µM, first compound 0.316 µM
# [22] = second compound 1 µM, first compound 1 µM
# [23] = second compound 1 µM, first compound 3.16 µM
# [24] = second compound 1 µM, first compound 10 µM
# [25] = second compound 3.16 µM, first compound 0.0316 µM
# [26] = second compound 3.16 µM, first compound 0.1 µM
# [27] = second compound 3.16 µM, first compound 0.316 µM
# [28] = second compound 3.16 µM, first compound 1 µM
# [29] = second compound 3.16 µM, first compound 3.16 µM
# [30] = second compound 3.16 µM, first compound 10 µM
# [31] = second compound 10 µM, first compound 0.0316 µM
# [32] = second compound 10 µM, first compound 0.1 µM
# [33] = second compound 10 µM, first compound 0.316 µM
# [34] = second compound 10 µM, first compound 1 µM
# [35] = second compound 10 µM, first compound 3.16 µM
# [36] = second compound 10 µM, first compound 10 µM
# 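Also: spheroids exposed to compounds for 7 days before readout.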
smiles,measurement,setting,value
CC(=O)O[C@H]1C(=O)[C@@]2(C)[C@H]([C@H](OC(=O)c3ccccc3)[C@]3(O)C[C@H](OC(=O)[C@H](O)[C@@H](NC(=O)c4ccccc4)c4ccccc4)C(C)=C1C3(C)C)[C@]1(OC(C)=O)CO[C@@H]1C[C@@H]2O + CN(C)c1ccc(Nc2c3ccc(NC(=O)CCN4CCCC4)cc3nc3cc(NC(=O)CCN4CCCC4)ccc23)cc1,IC50,second compound 0.0316 µM,0.222 µM
same,IC50,second compound 0.1 µM,0.22 µM
same,IC50,second compound 0.316 µM,0.19 µM
same,IC50,second compound 1 µM,0.0898 µM
same,IC50,second compound 3.16 µM,0.0933 µM
same,IC50,second compound 10 µM,0.207 µM
same,"viability, T/C",[1],76.8%
same,"viability, T/C",[2],57.2%
same,"viability, T/C",[3],48.6%
same,"viability, T/C",[4],39.2%
same,"viability, T/C",[5],43.2%
same,"viability, T/C",[6],46.2%
same,"viability, T/C",[7],72.7%
same,"viability, T/C",[8],58.1%
same,"viability, T/C",[9],46.5%
same,"viability, T/C",[10],38.9%
same,"viability, T/C",[11],49.7%
same,"viability, T/C",[12],48.5%
same,"viability, T/C",[13],73.9%
same,"viability, T/C",[14],54.4%
same,"viability, T/C",[15],47%
same,"viability, T/C",[16],41.2%
same,"viability, T/C",[17],49.6%
same,"viability, T/C",[18],42%
same,"viability, T/C",[19],59.2%
same,"viability, T/C",[20],50.6%
same,"viability, T/C",[21],40.5%
same,"viability, T/C",[22],39.3%
same,"viability, T/C",[23],39%
same,"viability, T/C",[24],35.1%
same,"viability, T/C",[25],65.8%
same,"viability, T/C",[26],51%
same,"viability, T/C",[27],38.4%
same,"viability, T/C",[28],45.6%
same,"viability, T/C",[29],44.2%
same,"viability, T/C",[30],39.4%
same,"viability, T/C",[31],70%
same,"viability, T/C",[32],51.8%
same,"viability, T/C",[33],51.2%
same,"viability, T/C",[34],46.5%
same,"viability, T/C",[35],41.8%
same,"viability, T/C",[36],46.3%
COc1ccc([C@@H](O)c2cc(-c3ncnc4cc(N5CCOCC5)ccc34)c(F)cc2Cl)nn1 + CN(C)c1ccc(Nc2c3ccc(NC(=O)CCN4CCCC4)cc3nc3cc(NC(=O)CCN4CCCC4)ccc23)cc1,IC50,second compound 0.0316 µM,3.58 µM
same,IC50,second compound 0.1 µM,3.71 µM
same,IC50,second compound 0.316 µM,2.97 µM
same,IC50,second compound 1 µM,2.71 µM
same,IC50,second compound 3.16 µM,1.86 µM
same,IC50,second compound 10 µM,1.12 µM
same,"viability, T/C",[1],88.8%
same,"viability, T/C",[2],88.9%
same,"viability, T/C",[3],84.3%
same,"viability, T/C",[4],72.4%
same,"viability, T/C",[5],53.6%
same,"viability, T/C",[6],23.9%
same,"viability, T/C",[7],96.6%
same,"viability, T/C",[8],81.3%
same,"viability, T/C",[9],96.2%
same,"viability, T/C",[10],68.8%
same,"viability, T/C",[11],55.5%
same,"viability, T/C",[12],26.9%
same,"viability, T/C",[13],96.8%
same,"viability, T/C",[14],83.2%
same,"viability, T/C",[15],79.4%
same,"viability, T/C",[16],68.7%
same,"viability, T/C",[17],48.9%
same,"viability, T/C",[18],24.5%
same,"viability, T/C",[19],86.2%
same,"viability, T/C",[20],86.4%
same,"viability, T/C",[21],76.6%
same,"viability, T/C",[22],73.1%
same,"viability, T/C",[23],45.7%
same,"viability, T/C",[24],23.1%
same,"viability, T/C",[25],72.5%
same,"viability, T/C",[26],81.2%
same,"viability, T/C",[27],73.3%
same,"viability, T/C",[28],57.8%
same,"viability, T/C",[29],42.5%
same,"viability, T/C",[30],20.6%
same,"viability, T/C",[31],81.3%
same,"viability, T/C",[32],71.8%
same,"viability, T/C",[33],69.5%
same,"viability, T/C",[34],51%
same,"viability, T/C",[35],32.9%
same,"viability, T/C",[36],17.4%
COc1cccc2c1C(=O)c1c(O)c3c(c(O)c1C2=O)CC(O)(C(=O)CO)CC3OC1CC(N)C(O)C(C)O1 (stereo not drawn) + CN(C)c1ccc(Nc2c3ccc(NC(=O)CCN4CCCC4)cc3nc3cc(NC(=O)CCN4CCCC4)ccc23)cc1,IC50,second compound 0.0316 µM,0.909 µM
same,IC50,second compound 0.1 µM,0.841 µM
same,IC50,second compound 0.316 µM,0.783 µM
same,IC50,second compound 1 µM,0.679 µM
same,IC50,second compound 3.16 µM,0.633 µM
same,IC50,second compound 10 µM,0.858 µM
same,"viability, T/C",[1],109%
same,"viability, T/C",[2],84.4%
same,"viability, T/C",[3],74.2%
same,"viability, T/C",[4],49.3%
same,"viability, T/C",[5],25.2%
same,"viability, T/C",[6],9.52%
same,"viability, T/C",[7],100%
same,"viability, T/C",[8],85.3%
same,"viability, T/C",[9],71.2%
same,"viability, T/C",[10],47.1%
same,"viability, T/C",[11],24.5%
same,"viability, T/C",[12],13.8%
same,"viability, T/C",[13],107%
same,"viability, T/C",[14],78.9%
same,"viability, T/C",[15],70.1%
same,"viability, T/C",[16],47.9%
same,"viability, T/C",[17],23.6%
same,"viability, T/C",[18],14%
same,"viability, T/C",[19],89.7%
same,"viability, T/C",[20],74.7%
same,"viability, T/C",[21],66.5%
same,"viability, T/C",[22],42.9%
same,"viability, T/C",[23],23.2%
same,"viability, T/C",[24],12.2%
same,"viability, T/C",[25],83.7%
same,"viability, T/C",[26],76.5%
same,"viability, T/C",[27],55%
same,"viability, T/C",[28],48.4%
same,"viability, T/C",[29],25%
same,"viability, T/C",[30],15.2%
same,"viability, T/C",[31],77%
same,"viability, T/C",[32],78.2%
same,"viability, T/C",[33],64%
same,"viability, T/C",[34],50%
same,"viability, T/C",[35],22.3%
same,"viability, T/C",[36],14%
COc1cc(C2c3cc4c(cc3C(OC3OC5COC(C)OC5C(O)C3O)C3COC(=O)C23)OCO4)cc(OC)c1O (stereo not drawn) + CN(C)c1ccc(Nc2c3ccc(NC(=O)CCN4CCCC4)cc3nc3cc(NC(=O)CCN4CCCC4)ccc23)cc1,IC50,second compound 0.0316 µM,4.94 µM
same,IC50,second compound 0.1 µM,4.35 µM
same,IC50,second compound 0.316 µM,4.03 µM
same,IC50,second compound 1 µM,2.93 µM
same,IC50,second compound 3.16 µM,4.71 µM
same,IC50,second compound 10 µM,3.61 µM
same,"viability, T/C",[1],98.6%
same,"viability, T/C",[2],87.8%
same,"viability, T/C",[3],88.9%
same,"viability, T/C",[4],70.4%
same,"viability, T/C",[5],57.8%
same,"viability, T/C",[6],38.5%
same,"viability, T/C",[7],99.6%
same,"viability, T/C",[8],95.2%
same,"viability, T/C",[9],87.5%
same,"viability, T/C",[10],79%
same,"viability, T/C",[11],54%
same,"viability, T/C",[12],36%
same,"viability, T/C",[13],93.5%
same,"viability, T/C",[14],78.9%
same,"viability, T/C",[15],85.5%
same,"viability, T/C",[16],70.3%
same,"viability, T/C",[17],53.6%
same,"viability, T/C",[18],34.1%
same,"viability, T/C",[19],90.5%
same,"viability, T/C",[20],82%
same,"viability, T/C",[21],87.4%
same,"viability, T/C",[22],74.3%
same,"viability, T/C",[23],48.5%
same,"viability, T/C",[24],37.4%
same,"viability, T/C",[25],88%
same,"viability, T/C",[26],78.5%
same,"viability, T/C",[27],77.8%
same,"viability, T/C",[28],66.3%
same,"viability, T/C",[29],60.4%
same,"viability, T/C",[30],36.6%
same,"viability, T/C",[31],79%
same,"viability, T/C",[32],84.8%
same,"viability, T/C",[33],75.1%
same,"viability, T/C",[34],61%
same,"viability, T/C",[35],55%
same,"viability, T/C",[36],33.6%
